From US20250136593A1, “DEGRADATION AGENT AND USE THEREOF” (HITGEN INC., priority 2021, published 2025)

Legend:
MOLT-4 cells = assay: Inhibitory activity on MOLT4 cell proliferation by Cell Titer-Glo method; format: cell-based; details: Homo sapiens, 72 hours incubation, read-out: IC50 concentration for inhibiting MOLT-4 cells
Protocol: Experimental Example 5, Evaluation Experiment of Inhibitory Activity of Compound on MOLT4 Cell Proliferation by Cell Titer-Glo Method
RPMI medium modified (Hyclone), FBS (Corning), Dimethyl Sulfoxide, P/S, CellTiter-Gbo Luminescent Cell Viability Assay (Promega), MOLT-4 cell (ATCC).
MOLT-4 cells were cultured in monolayer in vitro in an incubator containing 5% CO2 air at 37° C. The culture medium was RPMI 1640 with 10% FBS and 1% P/S. 15 μL of MOLT4 cells, containing 5×10^4 cells per ml, was inoculated to a 384-well plate (Corning, 3707), 750 cells/well, and incubated at 37° C. and 5% CO2 for 30 minutes. Then the compound that had been diluted in advance was added, with a total of 9 concentration points, and 2 parallel repetitions for each concentration point. The cell growing group without adding the compound was used as a negative control (maximum signal control), and the culture medium group was used as a blank control (minimum signal control). At the same time, it was ensured that the final DMSO content in each reaction well was 0.1%. The compound and the cells were incubated in a cell culture incubator at 37° C., 5% CO2 for 3 days (72 hours).
The 384-well plate was taken out from the cell culture incubator and allowed to stand at room temperature, equilibrated for 20 to 30 minutes, and then 25 μl of Cell Titer-Glo detection reagent was added to each reaction well, lysed on a shaker for 2 minutes, incubated for 10 minutes, and BMG PHERAStar (Luminescence) was used for reading.
The inhibition rate was calculated based on the luminescence signals: the average value of the negative control (maximum signal control) and the blank control (minimum signal control) was first calculated, then the inhibition rates of the compound at different concentrations for the cells were calculated as follows:
The IC50 of the compound to inhibit cell activity was calculated by fitting with GraphPad Prism 6 using log(inhibitor) vs. response−Variable slope mode. The fitting equation was: Y=Bottom+(Top−Bottom)/(1+10^((LogIC50−X)*HillSlope)), wherein Y represented the inhibition rate and X represented the known compound concentration after Log.

[1] = target: ternary complex between BCL-XL and CRBN-DDB1 (Homo sapiens, UniProt Q07817+Q96SW2); assay: Compound-induced formation of ternary complex between BCL-XL and CRBN-DDB1 by AlphaLISA; format: biochemical; parameters: key: the number of + indicates the intensity of AlphaLISA peak signal; ++: the number of + indicates the intensity of AlphaLISA peak signal; +++: the number of + indicates the intensity of AlphaLISA peak signal; ++++: the number of + indicates the intensity of AlphaLISA peak signal; +++++: the number of + indicates the intensity of AlphaLISA peak signal; details: peak signal; 60 nM Strep-BCL-XL and 60 nM His-CRBN/DDB1
ternary complex between BCL-XL and CRBN-DDB1, sequence (Q07817 whole entry): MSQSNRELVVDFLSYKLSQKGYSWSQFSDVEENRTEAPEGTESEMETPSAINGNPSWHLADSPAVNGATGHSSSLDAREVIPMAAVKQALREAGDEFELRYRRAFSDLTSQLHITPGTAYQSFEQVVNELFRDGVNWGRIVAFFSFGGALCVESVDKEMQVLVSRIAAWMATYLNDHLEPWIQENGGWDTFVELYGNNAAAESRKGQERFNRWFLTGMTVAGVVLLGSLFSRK
ternary complex between BCL-XL and CRBN-DDB1, sequence (Q96SW2 whole entry): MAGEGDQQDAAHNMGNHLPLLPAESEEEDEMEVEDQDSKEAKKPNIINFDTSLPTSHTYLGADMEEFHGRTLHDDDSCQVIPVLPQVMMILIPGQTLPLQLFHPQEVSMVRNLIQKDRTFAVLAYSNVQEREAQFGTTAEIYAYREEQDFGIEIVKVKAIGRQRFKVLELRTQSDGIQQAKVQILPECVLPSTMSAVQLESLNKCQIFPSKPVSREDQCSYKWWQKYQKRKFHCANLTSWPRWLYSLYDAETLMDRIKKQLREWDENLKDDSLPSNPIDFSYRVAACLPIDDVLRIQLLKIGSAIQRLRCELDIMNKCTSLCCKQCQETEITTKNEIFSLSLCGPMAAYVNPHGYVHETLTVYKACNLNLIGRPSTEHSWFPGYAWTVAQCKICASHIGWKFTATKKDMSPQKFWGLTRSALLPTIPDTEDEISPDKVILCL
ternary complex between BCL-XL and CRBN-DDB1, sequence (Q16531 whole entry partner): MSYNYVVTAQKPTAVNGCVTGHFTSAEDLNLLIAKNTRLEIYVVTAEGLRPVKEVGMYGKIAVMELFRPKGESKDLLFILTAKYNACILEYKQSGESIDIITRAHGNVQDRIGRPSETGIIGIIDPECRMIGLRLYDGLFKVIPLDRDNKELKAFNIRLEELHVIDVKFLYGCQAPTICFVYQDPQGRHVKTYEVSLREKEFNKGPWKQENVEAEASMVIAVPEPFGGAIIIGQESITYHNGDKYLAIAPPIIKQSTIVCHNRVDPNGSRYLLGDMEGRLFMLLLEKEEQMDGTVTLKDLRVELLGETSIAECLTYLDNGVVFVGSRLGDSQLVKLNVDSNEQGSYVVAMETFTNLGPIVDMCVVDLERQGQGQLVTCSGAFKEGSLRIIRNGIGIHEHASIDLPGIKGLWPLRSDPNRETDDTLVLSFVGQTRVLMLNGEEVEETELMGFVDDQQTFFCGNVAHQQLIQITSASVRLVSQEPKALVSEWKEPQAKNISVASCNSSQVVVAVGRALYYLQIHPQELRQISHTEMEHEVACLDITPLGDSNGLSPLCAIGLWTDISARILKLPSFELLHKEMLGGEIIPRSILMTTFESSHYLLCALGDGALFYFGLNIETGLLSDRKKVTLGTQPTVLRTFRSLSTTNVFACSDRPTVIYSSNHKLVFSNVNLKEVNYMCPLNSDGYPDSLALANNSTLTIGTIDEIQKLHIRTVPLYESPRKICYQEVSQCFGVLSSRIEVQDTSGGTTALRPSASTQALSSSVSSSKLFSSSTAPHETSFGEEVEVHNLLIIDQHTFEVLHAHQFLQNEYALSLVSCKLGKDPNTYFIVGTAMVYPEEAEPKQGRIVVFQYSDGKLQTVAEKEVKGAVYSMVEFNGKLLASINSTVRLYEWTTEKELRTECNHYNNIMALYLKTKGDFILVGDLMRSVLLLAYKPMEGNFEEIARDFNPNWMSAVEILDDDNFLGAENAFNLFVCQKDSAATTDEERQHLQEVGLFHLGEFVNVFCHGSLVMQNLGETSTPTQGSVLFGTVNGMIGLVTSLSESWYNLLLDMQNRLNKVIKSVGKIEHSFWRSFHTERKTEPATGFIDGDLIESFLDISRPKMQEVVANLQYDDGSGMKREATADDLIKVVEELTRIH
Protocol: Experimental Example 4, Detection of Compound-Induced Formation of Ternary Complex Between BCL-XL and CRBN-DDB1 by AlphaLISA Method
Na2HPO4(Sigma), NaH2PO4(Sigma), sodium chloride (Sigma), Tween-20 (Sigma), AlphaLISA®Nikel Chelate Acceptor beads (PerkinElmer), Strep-Tactin® Alpha Donor beads (PerkinElmer), Assay plate (Corning), Strep-BCl-XL (HitGen), His-CRBN/DDB1 (HitGen).
DMSO was used to dissolve the dry powder of the test compound to obtain a 10.00 mM solution. The instrument ECHO was used to perform gradient dilution of the compound, which was then added to a 384-well reaction plate (Corning, Cat #3824), so that the final concentration of DMSO in the entire reaction system (10.0 μL) was less than 1%, and the same amount of DMSO was added and used as a control.
Strep-BCl-XL and His-CRBN/DDB1 proteins were dissolved in buffer (10 mM NaH2PO4, 40 mM Na2HPO4, 150 mM sodium chloride, 0.03% Tween20, pH=7.4) to obtain a protein mixture of 60 nM Strep-BCL-XL and 60 nM His-CRBN/DDB1, the protein mixture (5ul/well) was added to the 384-well plate in which the compound had been added, and incubated at room temperature for 30 minutes, then 5 μl of a detection mixture with 50 μg/ml AlphaLISA®Nikel Chelate Acceptor beads and 50 μg/ml Strep-Tactin® Alpha Donor beads was added, and incubated at room temperature for 2 hours; and then a microplate reader was used to detect AlphaLISA signal.
Fifth order polynomial or Sixth order polynomial in Polynomial of Graphpad 6.0 was used for data fitting.

| Compound | IC50 (MOLT-4 cells) [µM] | AlphaLISA signal (PROTAC ternary complex signal intensity) [1] |
| --- | --- | --- |
| C=Cc1cc(-c2nc3c(c(NC)n2)CCN(C(=O)c2ccc(COc4ccc(C#CCN5CCN(CCCCNc6cccc7c6C(=O)N(C6CCC(=O)NC6=O)C7=O)CC5)cc4)cc2)C3)cnc1C=C (stereo not drawn) [Compound C2-2] | 50 to 100 | ++++ |
| CNc1nc(-c2cnc3ccccc3c2)nc2c1CCN(C(=O)c1ccc(/C=C/c3ccc(C#CCN4CCN(CCCCCC(=O)N[C@H](C(=O)N5C[C@H](O)C[C@H]5C(=O)NCc5ccc(-c6scnc6C)cc5)C(C)(C)C)CC4)cc3)cc1)C2 [Compound G1-5] | > 200 | ++ |
| C=Cc1cc(-c2nc3c(c(NC)n2)CCN(C(=O)c2ccc(COc4ccc(C#CCN5CCN(CCCCCCOc6cccc7c6C(=O)N(C6CCC(=O)NC6=O)C7=O)CC5)cc4)cc2)C3)cnc1C=C (stereo not drawn) [Compound C3-17] | 50 to 100 | ++++ |
| CNc1nc(-c2cnc3ccccc3c2)nc2c1CCN(C(=O)c1ccc(/C=C/c3ccc(C#CCN4CCN(C(=O)CC(=O)N[C@H](C(=O)N5C[C@H](O)C[C@H]5C(=O)N[C@@H](C)c5ccc(-c6scnc6C)cc5)C(C)(C)C)CC4)cc3)cc1)C2 [Compound G2-1] | > 200 | ++ |
| CNc1nc(-c2cnc3ccccc3c2)nc2c1CCN(C(=O)c1ccc(/C=C/c3ccc(C#CCN4CCN(CCCCC(=O)N[C@H](C(=O)N5C[C@H](O)C[C@H]5C(=O)N[C@@H](C)c5ccc(-c6scnc6C)cc5)C(C)(C)C)CC4)cc3)cc1)C2 [Compound G3-1] | – | + |
| C=Cc1cc(-c2nc3c(c(NC)n2)CCN(C(=O)c2ccc(COc4ccc(C#CCN5CCN(CCCCCNc6cccc7c6C(=O)N(C6CCC(=O)NC6=O)C7=O)CC5)cc4)cc2)C3)cnc1C=C (stereo not drawn) [Compound C2-3] | 100 to 200 | +++++ |
| CNc1nc(-c2cnc3ccccc3c2)nc2c1CCN(C(=O)c1ccc(/C=C/c3ccc(C#CCN4CCN(C(=O)CCCCCCCCC(=O)N[C@H](C(=O)N5C[C@H](O)C[C@H]5C(=O)N[C@@H](C)c5ccc(-c6scnc6C)cc5)C(C)(C)C)CC4)cc3)cc1)C2 [Compound G2-7] | – | + |
| CNc1nc(-c2cnc3ccccc3c2)nc2c1CCN(C(=O)c1ccc(/C=C/c3ccc(C#CCN4CCN(C(=O)CCCCCCC(=O)N[C@H](C(=O)N5C[C@H](O)C[C@H]5C(=O)NCc5ccc(-c6scnc6C)cc5)C(C)(C)C)CC4)cc3)cc1)C2 [Compound G2-6] | – | + |
| CNc1nc(-c2cnc3ccccc3c2)nc2c1CCN(C(=O)c1ccc(/C=C/c3ccc(C#CCN4CCN(C(=O)CCC(=O)N[C@H](C(=O)N5C[C@H](O)C[C@H]5C(=O)N[C@@H](C)c5ccc(-c6scnc6C)cc5)C(C)(C)C)CC4)cc3)cc1)C2 [Compound G2-2] | – | + |
| C=Cc1cc(-c2nc3c(c(NC)n2)CCN(C(=O)c2ccc(COc4ccc(C#CCN(C)CCCCOc5cccc6c5C(=O)N(C5CCC(=O)NC5=O)C6=O)cc4)cc2)C3)cnc1C=C (stereo not drawn) [Compound B2] | – | + |
| C=Cc1cc(-c2nc3c(c(NC)n2)CCN(C(=O)c2ccc(COc4ccc(C#CCN5CCN(CCCCCCCCNc6cccc7c6C(=O)N(C6CCC(=O)NC6=O)C7=O)CC5)cc4)cc2)C3)cnc1C=C (stereo not drawn) [Compound C2-5] | – | +++ |
| C=Cc1cc(-c2nc3c(c(NC)n2)CCN(C(=O)c2ccc(COc4ccc(C#CCN5CCN(CCCCCOc6cccc7c6C(=O)N(C6CCC(=O)NC6=O)C7=O)CC5)cc4)cc2)C3)cnc1C=C (stereo not drawn) [Compound C3-16] | 50 to 100 | ++++ |
| CNc1nc(-c2cnc3ccccc3c2)nc2c1CCN(C(=O)c1ccc(/C=C/c3ccc(C#CCN4CCN(C(=O)CCCCC(=O)N[C@H](C(=O)N5C[C@H](O)C[C@H]5C(=O)NCc5ccc(-c6scnc6C)cc5)C(C)(C)C)CC4)cc3)cc1)C2 [Compound G2-4] | – | + |
| CNc1nc(-c2cnc3ccccc3c2)nc2c1CCN(C(=O)c1ccc(/C=C/c3ccc(C#CCN4CCN(CCCCC(=O)N[C@H](C(=O)N5C[C@H](O)C[C@H]5C(=O)NCc5ccc(-c6scnc6C)cc5)C(C)(C)C)CC4)cc3)cc1)C2 [Compound G1-4] | – | + |
| CNc1nc(-c2cnc3ccccc3c2)nc2c1CCN(C(=O)c1ccc(COc3ccc(C#CCN4CCN(C(=O)CCCn5cc(COCCOCCNc6cccc7c6C(=O)N(C6CCC(=O)NC6=O)C7=O)nn5)CC4)cc3)cc1)C2 (stereo not drawn) [A] | 50 to 100 | ++ |
| CNc1nc(-c2cnc3ccccc3c2)nc2c1CCN(C(=O)c1ccc(/C=C/c3ccc(C#CCN4CCN(C(=O)CCCCCC(=O)N[C@H](C(=O)N5C[C@H](O)C[C@H]5C(=O)NCc5ccc(-c6scnc6C)cc5)C(C)(C)C)CC4)cc3)cc1)C2 [Compound G2-5] | – | + |

Continued, values first:

| IC50 (MOLT-4 cells) [µM] | AlphaLISA signal (PROTAC ternary complex signal intensity) [1] | Compound |
| --- | --- | --- |
| 50 to 100 | + | C=Cc1cc(-c2nc3c(c(NC)n2)CCN(C(=O)c2ccc(/C=C/c4ccc(C#CCN5CCN(CCCCCOc6cccc7c6C(=O)N(C6CCC(=O)NC6=O)C7=O)CC5)cc4)cc2)C3)cnc1C=C (stereo not drawn) [Compound C3-6] |
| 50 to 100 | ++ | O=C1CCC(N2Cc3c(OC4CC5(C4)CN(C4CCN(CC#Cc6ccc(/C=C/c7ccc(C(=O)N8CCc9cnc(-c%10cnc%11ccccc%11c%10)nc9C8)cc7)cc6)CC4)C5)cccc3C2=O)C(=O)N1 (stereo not drawn) [Compound F3B-2] |
| 100 to 200 | + | C/C=c1/cc(-c2ncc3c(n2)CN(C(=O)c2ccc(/C=C/c4ccc(C#CCN5CCN(CCCCCOc6cccc7c6CN(C6CCC(=O)NC6=O)C7=O)CC5)cc4)cc2)CC3)cn/c1=C/C (stereo not drawn) [Compound C3-4] |
| 100 to 200 | ++ | CNc1nc(-c2cnc3ccccc3c2)nc2c1CCN(C(=O)c1ccc(/C=C/c3ccc(C#CCN4CCN(CCCC#Cc5cccc6c5CN(C5CCC(=O)NC5=O)C6=O)CC4)cc3)cc1)C2 (stereo not drawn) [Compound D2-6] |
| 100 to 200 | + | C=Cc1cc(-c2ncc3c(n2)CN(C(=O)c2ccc(/C=C/c4ccc(C#CCN5CCN(CCCCCOc6cccc7c6C(=O)N(C6CCC(=O)NC6=O)C7=O)CC5)cc4)cc2)CC3)cnc1C=C (stereo not drawn) [Compound C3-2] |
| 100 to 200 | + | O=C1CCC(N2Cc3c(C#CCCCN4CCN(CC#Cc5ccc(/C=C/c6ccc(C(=O)N7CCc8cnc(-c9cnc%10ccccc%10c9)nc8C7)cc6)cc5)CC4)cccc3C2=O)C(=O)N1 (stereo not drawn) [Compound D2-4] |
| 100 to 200 | ++ | C/C=c1/cc(-c2nc3c(c(NC)n2)CCN(C(=O)c2ccc(/C=C/c4ccc(C#CCN5CCN(CCCCCOc6cccc7c6CN(C6CCC(=O)NC6=O)C7=O)CC5)cc4)cc2)C3)cn/c1=C/C (stereo not drawn) [Compound C3-5] |
| – | + | C=Cc1cc(-c2ncc3c(n2)CN(C(=O)c2ccc(/C=C/c4ccc(C#CCN5CCN(CCCCCCOc6cccc7c6C(=O)N(C6CCC(=O)NC6=O)C7=O)CC5)cc4)cc2)CC3)cnc1C=C (stereo not drawn) [Compound C3-3] |
| – | + | C=Cc1cc(-c2ncc3c(n2)CN(C(=O)c2ccc(COc4ccc(C#CCN5CCN(CCCCCOc6cccc7c6C(=O)N(C6CCC(=O)NC6=O)C7=O)CC5)nc4)cc2)CC3)cnc1C=C (stereo not drawn) [Compound C3-13] |
